Source: patent US12459908B2, “Alpha, beta unsaturated methacrylic esters with anti-inflammatory properties” (Sitryx Therapeutics Limited, priority 2020, dated 2025)
Counter-ions that a name gives are not always drawn.

Key:
IL-1β = assay: THP-1 AlphaLISA IL-1β cytokine inhibition assay (differentiated THP-1 cells); assay type: cell-based; details: Homo sapiens, LPS 24 hr then Nigericin 1 hour, class symbols
Experimental: Biological Example 1—THP-1 AlphaLISA IL-1β
Measuring Inhibitory Effects on IL-1, Cytokine Output from THP-1s
(§1) The cytokine inhibition profiles of compounds of formula (I) were determined in a differentiated THP-1 cell assay. All assays were performed in RPMI-1640 growth medium (Gibco), supplemented with 10% fetal bovine serum (FBS; Gibco), 1% penicillin-streptomycin and 1% sodium pyruvate unless specified otherwise. The IL-1p cytokine inhibition assay was run in a background of differentiated THP-1 cells as described below. All reagents described were from Sigma-Aldrich unless specified otherwise. Compounds were prepared as 10 mM DMSO stocks.
(§2) THP-1 cells were expanded as a suspension up to 80% confluence in appropriate growth medium. Cells were harvested, suspended, and treated with an appropriate concentration of phorbol 12-myristate 13-acetate (PMA) over a 72 hr period (37° C./5% CO2).
(§3) Following 72 hrs of THP-1 cell incubation, cellular medium was removed and replaced with fresh growth media containing 1% of FBS. Working concentrations of compounds were prepared separately in 10% FBS treated growth medium and pre-incubated with the cells for 30 minutes (37° C./5% CO2). Following the 30 minute compound pre-incubation, THP-1s were treated with an appropriate concentration of LPS and the cells were subsequently incubated for a 24 hr period (37° C./5% CO2). An appropriate final concentration of Nigericin was then dispensed into the THP-1 plates and incubated for 1 hour (37° C./5% CO2) before THP-1 supernatants were harvested and collected in separate polypropylene 96-well holding plates.
(§4) Reagents from an IL-1β and IL-6 commercial kit (Perkin Elmer) were prepared and run according to the manufacturer's instructions. Subsequently, fluorescence signal detection in a microplate reader was measured (EnVision® Multilabel Reader, Perkin Elmer).
(§5) Percentage inhibition was calculated per cytokine by normalising the sample data to the high and low controls used within each plate (+/−LPS respectively). Percentage inhibition was then plotted against compound concentration and the 50% inhibitory concentration (IC50) was determined from the resultant concentration-response curve.

IL-6 = assay: THP-1 AlphaLISA IL-6 cytokine inhibition assay (differentiated THP-1 cells); assay type: cell-based; details: Homo sapiens, LPS 24 hr then Nigericin 1 hour, class symbols
Experimental: as §1, §2, §3, §4, §5

NRF2 = NRF2 activation assay (DiscoverX PathHunter NRF2 translocation kit, U2OS cells); assay type: cell-based; details: Homo sapiens, 6 hours; for Emax: normalised to DMF high control
Experimental: Biological Example 2—NRF2 Activation Assay
Measuring Compound Activation Effects on the Anti-Inflammatory Transcription Factor NRF2 in DiscoverX PathHunter NRF2 Translocation Kit
Potency and efficacy of compounds of formula (I) against the target of interest to activate NRF2 (nuclear factor erythroid 2-related factor 2) were determined using the PathHunter NRF2 translocation kit (DiscoverX). The NRF2 translocation assay was run using an engineered recombinant cell line, utilising enzyme fragment complementation to determine activation of the Keap1-NRF2 protein complex and subsequent translocation of NRF2 into the nucleus. Enzyme activity was quantified using a chemiluminescent substrate consumed following the formation of a functional enzyme upon PK-tagged NRF2 translocation into the nucleus.
Additionally, a defined concentration of DMF was used as the ‘High’ control to normalise test compound activation responses to.
U2OS PathHunter eXpress cells were thawed from frozen prior to plating. Following plating, U2OS cells were incubated for 24 hrs (37° C./5% CO2) in commercial kit provided cell medium.
Following 24 hrs of incubation, plated U2OS cells were directly treated with an appropriate final concentration of compound. […]
Following compound treatment, the U2OS plates were incubated for a further 6 hours (37° C./5% CO2) before detection reagent from the PathHunter NRF2 commercial kit was prepared and added to test plates according to the manufacturer's instructions. Subsequently, the luminescence signal detection was measured in a microplate reader (PHERAstar®, BMG Labtech).
Percentage activation was calculated by normalising the sample data to the high and low controls used within each plate (+/−DMF). Percentage activation/response was then plotted against compound concentration and the 50% activation concentration ([…]) was determined from the plotted concentration-response curve.

[1] = Hepatocyte stability assay, mouse cryopreserved hepatocytes; assay type: in vitro ADME; details: cryopreserved hepatocytes; Mouse hepatocytes, 10 μM, 60 min; class symbols; read-out: T½
From the text: (§6) Biological Example 3—Hepatocyte Stability Assay
(§7) Defrosted cryo-preserved hepatocytes (viability >70%) were used to determine the metabolic stability of a compound via calculation of intrinsic clearance (CIint; a measure of the removal of a compound from the liver in the absence of blood flow and cell binding). Clearance data are particularly important for in vitro work as they can be used in combination with in vivo data to predict the half-life and oral bioavailability of a drug.
(§8) The metabolic stability in hepatocytes assay involves a time-dependent reaction using both positive and negative controls. The cells were pre-incubated at 37° C. and spiked with test compound (and positive control); samples taken at pre-determined time intervals were analysed to monitor the change in concentration of the initial drug compound over 60 minutes. A buffer incubation reaction (with no hepatocytes present) acted as a negative control and two cocktail solutions, containing compounds with known high and low clearance values (verapamil/7-hydroxycoumarin and propranolol/diltiazem), acted as positive controls. • 1. The assay was run with a cell concentration of 0.5×10^6 cells/mL in Leibovitz buffer. • 2. All compounds and controls were run in duplicate. • 3. Compound concentration was 10 μM. • 4. All compounds and controls were incubated with both cells and buffer to show turnover was due to hepatic metabolism. • 5. All wells on the incubation plate had 326.7 μL of either cells or buffer added. • 6. Prior to assay, cell and buffer-only incubation plates were preincubated for 10 mins at 37° C. • 7. The assay was initiated by adding compounds, 3.3 μL of 1 mM in 10% DMSO-90% Buffer; final DMSO concentration is 0.1%. • 8. Samples were taken at regular timepoints (0, 5, 10, 20, 40, 60 min) until 60 mins. • 9. Sample volume was 40 μL and was added to 160 μL of crash solvent (acetonitrile with internal standard) and stored on ice. • 10. At the end of the assay, the crash plates were centrifuged at 3500 rpm for 20 mins at 4° C. • 11. 80 μL of clear supernatant was removed and mixed with 80 μL of deionised water before being analysed by LC-MS/MS.
(§9) Raw LC-MS/MS data was exported to, and analysed in, Microsoft Excel for determination of intrinsic clearance. The percentage remaining of a compound was monitored using the peak area of the initial concentration as 100%. Intrinsic clearance and half-life values were calculated using a graph of the natural log of percentage remaining versus the time of reaction in minutes. Half-life (min) and intrinsic clearance (CIint in μL min^−1 10^−6 cells) values were calculated using the gradient of the graph (the elimination rate constant, k) and Equations 1 and 2.

[2] = tested on: cryo-preserved hepatocytes; assay: as above; assay type: in vitro ADME; details: Mouse hepatocytes, 10 μM, 60 min; class symbols
From the text: as §6, §7, §8, §9

[3] = Hepatocyte stability assay, human cryopreserved hepatocytes; assay type: in vitro ADME; details: cryopreserved hepatocytes; Human hepatocytes, 10 μM, 60 min; class symbols; read-out: T½
From the text: as §6, §7, §8, §9

| SMILES | IC50 (IL-1β) | IC50 (IL-6) | EC50 (NRF2; class symbols) | half-life at 10 μM [1] | Clint [2] | half-life at 10 μM [3] | EC50 (NRF2; numeric values) | Emax (NRF2; class symbols) | Emax (NRF2; numeric values) |
| --- | --- | --- | --- | --- | --- | --- | --- | --- | --- |
| C=C(Cc1nc(Cc2ccc(CCCC)cc2)no1)C(=O)O[C@H](CC(=O)O)C(F)(F)F [Example 9, (R)-3-((2-((3-(4-butylbenzyl)-1,2,4-oxadiazol-5-yl)methyl)acryloyl)oxy)-4,4,4-trifluorobutanoic acid] | < 5 µM | < 5 µM | < 5 µM | – | – | – | – | 101 to 134% | – |
| C=C(Cc1nc(Cc2ccc(CCCCC)cc2)no1)C(=O)O[C@H](CC(=O)O)C(F)(F)F [Example 11, (R)-4,4,4-trifluoro-3-((2-((3-(4-pentylbenzyl)-1,2,4-oxadiazol-5-yl)methyl)acryloyl)oxy)butanoic acid] | < 5 µM | < 5 µM | < 5 µM | – | – | – | – | 101 to 134% | – |
| C=C(Cc1nc(Cc2ccc(CCCCC)cc2)no1)C(=O)O[C@@H](CC(=O)O)C(F)(F)F [Example 12, (S)-4,4,4-trifluoro-3-((2-((3-(4-pentylbenzyl)-1,2,4-oxadiazol-5-yl)methyl)acryloyl)oxy)butanoic acid] | < 5 µM | < 5 µM | < 5 µM | – | – | – | – | 166 to 250% | – |
| C=C(Cc1nc(Cc2ccc(CCCC)cc2)no1)C(=O)OCCC(=O)O [Example 15, 3-((2-((3-(4-butylbenzyl)-1,2,4-oxadiazol-5-yl)methyl)acryloyl)oxy)propanoic acid] | < 5 µM | < 5 µM | – | ≤ 4 min | + (+ means ≥351) | 5 to 59 min | – | – | – |
| C=C(Cc1nc(CCCCCCCC)no1)C(=O)OC(C(F)(F)F)C(C)(C)C(=O)O (stereo not drawn) [Example 17, 4,4,4-trifluoro-2,2-dimethyl-3-((2-((3-octyl-1,2,4-oxadiazol-5-yl)methyl)acryloyl)oxy)butanoic acid] | < 5 µM | < 5 µM | – | ≤ 4 min | + (+ means ≥351) | 5 to 59 min | – | – | – |
| C=C(Cc1nc(Cc2ccc(OC(F)(F)F)cc2)no1)C(=O)OCC(=O)O [Example 20, 2-((2-((3-(4-(trifluoromethoxy)benzyl)-1,2,4-oxadiazol-5-yl)methyl)acryloyl)oxy)acetic acid] | 5 to 10 µM | < 5 µM | – | 5 to 11 min | ++ (++ means 95-350) | > 100 min | – | – | – |
| C=C(Cc1nc(CCCCC)no1)C(=O)OCC(=O)O [Example 21, 2-((2-((3-pentyl-1,2,4-oxadiazol-5-yl)methyl)acryloyl)oxy)acetic acid] | 21 to 24 µM | 11 to 20 µM | 11 to 21 µM | – | – | – | – | 166 to 250% | – |
| COC(=O)/C=C/C(=O)OC [dimethyl fumarate, reference compound] | – | – | – | – | – | – | 6.1 µM | – | 100% |

The next lines start with results.

| IC50 (IL-1β) | IC50 (IL-6) | EC50 (NRF2; class symbols) | half-life at 10 μM [1] | Clint [2] | half-life at 10 μM [3] | EC50 (NRF2; numeric values) | SMILES | Emax (NRF2; class symbols) | Emax (NRF2; numeric values) |
| --- | --- | --- | --- | --- | --- | --- | --- | --- | --- |
| < 5 µM | < 5 µM | < 5 µM | ≤ 4 min | + (+ means ≥351) | 5 to 59 min | – | C=C(Cc1nc(CCCCCCCC)no1)C(=O)OCC(=O)O [Example 1, 2-((2-((3-octyl-1,2,4-oxadiazol-5-yl)methyl)acryloyl)oxy)acetic acid] | 135 to 165% | – |
| < 5 µM | – | < 5 µM | ≤ 4 min | + (+ means ≥351) | 5 to 59 min | – | C=C(Cc1nc(CCCCCCCC)no1)C(=O)OCCC(=O)O [Example 2] | 135 to 165% | – |
| < 5 µM | 5 to 10 µM | 5 to 10 µM | 5 to 11 min | ++ (++ means 95-350) | 60 to 100 min | – | C=C(Cc1nc(C2(c3ccc(C(F)(F)F)cc3)CC2)no1)C(=O)OCC(=O)O [Example 4, 2-((2-((3-(1-(4-(trifluoromethyl)phenyl)cyclopropyl)-1,2,4-oxadiazol-5-yl)methyl)acryloyl)oxy)acetic acid] | 135 to 165% | – |
| < 5 µM | < 5 µM | < 5 µM | ≤ 4 min | + (+ means ≥351) | 5 to 59 min | – | C=C(Cc1nc(CCCCCCCC)no1)C(=O)O[C@H](CC(=O)O)C(F)(F)F [Example 5, (R)-4,4,4-trifluoro-3-((2-((3-octyl-1,2,4-oxadiazol-5-yl)methyl)acryloyl)oxy)butanoic acid] | 135 to 165% | – |
| < 5 µM | < 5 µM | < 5 µM | ≤ 4 min | + (+ means ≥351) | 5 to 59 min | – | C=C(Cc1nc(CCCCCCCC)no1)C(=O)O[C@@H](CC(=O)O)C(F)(F)F [Example 6, (S)-4,4,4-trifluoro-3-((2-((3-octyl-1,2,4-oxadiazol-5-yl)methyl)acryloyl)oxy)butanoic acid] | > 250% | – |
| < 5 µM | < 5 µM | < 5 µM | ≤ 4 min | + (+ means ≥351) | 5 to 59 min | – | C=C(Cc1nc(C2(c3ccc(C(F)(F)F)cc3)CC2)no1)C(=O)O[C@H](CC(=O)O)C(F)(F)F [Example 7, (R)-4,4,4-trifluoro-3-((2-((3-(1-(4-(trifluoromethyl)phenyl)cyclopropyl)-1,2,4-oxadiazol-5-yl)methyl)acryloyl)oxy)butanoic acid] | 3 to 100% | – |
| < 5 µM | < 5 µM | < 5 µM | ≤ 4 min | + (+ means ≥351) | 5 to 59 min | – | C=C(Cc1nc(C2(c3ccc(C(F)(F)F)cc3)CC2)no1)C(=O)O[C@@H](CC(=O)O)C(F)(F)F [Example 8, (S)-4,4,4-trifluoro-3-((2-((3-(1-(4-(trifluoromethyl)phenyl)cyclopropyl)-1,2,4-oxadiazol-5-yl)methyl)acryloyl)oxy)butanoic acid] | 135 to 165% | – |
